Here are results for seven compounds from PubChem BioAssay (NCI).

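1) Cells in 96-well plates. 2) Compound, 48 h, 5 concentrations. 3) Linear interpolation between surrounding doses. 4) Unreached endpoint = highest concentration. GI50 is the concentration that inhibits growth by half. At the TGI there is no net growth.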

Among the test systems are HOP-62 NSCLC; SNB-75 CNS; NCI-H23 lung; RPMI-8226 leukemia; SK-MEL-2 melanoma; HCC-2998 colon; SNB-19 CNS; CCRF-CEM leukemia; OVCAR-8 ovarian; HCT-116 colon.
Holding throughout (test): NCI tumour cell line growth inhibition, 48 h

In the case of `CCOCNc1ccc(N2C(=O)/C(=C/c3ccc(N(CC)CC)cc3)N=C2c2ccccc2)cc1`, the GI50 in the test with HOP-62 NSCLC was 12.6 µM; with SNB-75 CNS, 16.2 µM; with NCI-H23 lung, 27.3 µM; with RPMI-8226 leukemia, 2.83 µM; with SK-MEL-2 melanoma it was 13.7 µM; with HCC-2998 colon, over 100 µM. The GI50 in the test on SNB-19 CNS was 7.57 µM; in the test with CCRF-CEM leukemia it was 3.55 µM; in the test on OVCAR-8 ovarian, 10.8 µM; with HCT-116 colon it was 2.4 µM. Moreover, the TGI with HOP-62 NSCLC was 35.3 µM; with SNB-75 CNS, 81.2 µM; in the test with NCI-H23 lung, over 100 µM; in the test on RPMI-8226 leukemia, over 100 µM; with SK-MEL-2 melanoma it was 31 µM; in the test on HCC-2998 colon, over 100 µM. For the same compound, the TGI was 55.3 µM in the test on SNB-19 CNS, over 100 µM with CCRF-CEM leukemia, over 100 µM with OVCAR-8 ovarian and 53.4 µM with HCT-116 colon.
In the case of `Cn1cnc([N+](=O)[O-])c1Sc1nc(N)nc2nc[nH]c12`, the GI50 in the test with HOP-62 NSCLC is 1.22 µM; in the test with SNB-75 CNS, 1.08 µM; with NCI-H23 lung, 5.61 µM; with RPMI-8226 leukemia, 3.52 µM; in the test on SK-MEL-2 melanoma it was 6.16 µM; in the test on HCC-2998 colon, 3.79 µM. In addition, the GI50 in the test on SNB-19 CNS was over 100 µM; in the test with CCRF-CEM leukemia, 3.01 µM; in the test with OVCAR-8 ovarian, 3.68 µM; in the test on HCT-116 colon, 2.71 µM. The TGI in the test on HOP-62 NSCLC is over 100 µM; with SNB-75 CNS it was over 100 µM; with NCI-H23 lung, over 100 µM; in the test with RPMI-8226 leukemia, over 94 µM; in the test on SK-MEL-2 melanoma, over 100 µM; in the test with HCC-2998 colon, over 66.3 µM. Moreover, the TGI in the test on SNB-19 CNS, in the test on CCRF-CEM leukemia, in the test with OVCAR-8 ovarian and with HCT-116 colon was over 100 µM in each case.
`CC1(C)C2CCC13C(=O)C1OC3(C2)C2C(=O)c3c(O)cccc3C(=O)C12` (stereo not given): the GI50 with HOP-62 NSCLC is 16.1 µM; with SNB-75 CNS, 7.28 µM; in the test with NCI-H23 lung, 2.24 µM; with RPMI-8226 leukemia it was 0.177 µM; with SK-MEL-2 melanoma, 3.69 µM; in the test on HCC-2998 colon, 1.94 µM. Besides, the GI50 in the test with SNB-19 CNS is 10.6 µM; in the test with CCRF-CEM leukemia, 0.212 µM; with OVCAR-8 ovarian, 0.821 µM; in the test on HCT-116 colon, 1.09 µM. In addition, the TGI in the test with HOP-62 NSCLC is 31.7 µM; in the test on SNB-75 CNS, 22.3 µM; with NCI-H23 lung, 6.55 µM; in the test with RPMI-8226 leukemia, 0.441 µM; in the test on SK-MEL-2 melanoma, over 100 µM; in the test with HCC-2998 colon, 4.16 µM. Further, the TGI in the test with SNB-19 CNS came out at 23.9 µM; in the test on CCRF-CEM leukemia, 1.14 µM; with OVCAR-8 ovarian it was 2.68 µM; with HCT-116 colon, 2.3 µM.
`COc1ccc(NC(=O)c2sc3nc4c(cc3c2N)CCCC4)cc1`: the GI50 in the test on HOP-62 NSCLC is 0.752 µM; with SNB-75 CNS, 0.342 µM; in the test with NCI-H23 lung, 2.55 µM; in the test on RPMI-8226 leukemia it was 0.484 µM; with SK-MEL-2 melanoma it was 0.369 µM; with HCC-2998 colon, 3.6 µM. For the same compound, the GI50 is 1.57 µM in the test with SNB-19 CNS, 0.322 µM in the test with CCRF-CEM leukemia, 2.38 µM in the test on OVCAR-8 ovarian and 0.355 µM in the test on HCT-116 colon. Further, the TGI in the test with HOP-62 NSCLC is over 100 µM; with SNB-75 CNS, 11.6 µM; in the test with NCI-H23 lung it was over 100 µM; in the test on RPMI-8226 leukemia, 12.1 µM; in the test with SK-MEL-2 melanoma, 4.69 µM; in the test on HCC-2998 colon, over 100 µM. In addition, the TGI in the test with SNB-19 CNS is over 100 µM; in the test with CCRF-CEM leukemia, over 100 µM; in the test with OVCAR-8 ovarian it was over 100 µM; in the test with HCT-116 colon it was 11 µM.
With `NC(=O)C(=O)n1ncc(Cl)c(Cl)c1=O`, the TGI in the test with HOP-62 NSCLC is over 100 µM; in the test on SNB-75 CNS, over 69.7 µM; in the test on NCI-H23 lung, 52.9 µM; with RPMI-8226 leukemia, 51.9 µM; in the test with SK-MEL-2 melanoma, 30.8 µM; with HCC-2998 colon it was 32.1 µM. Also, the TGI is over 100 µM in the test on SNB-19 CNS, 26.1 µM in the test with CCRF-CEM leukemia, 65.9 µM in the test with OVCAR-8 ovarian and 55.3 µM in the test with HCT-116 colon.
In the case of `Cc1nnc(N=Nc2c(O)[nH]c3ccccc23)n1N`, the TGI in the test on HOP-62 NSCLC, with SNB-75 CNS, in the test on NCI-H23 lung, in the test on RPMI-8226 leukemia, in the test on SK-MEL-2 melanoma and with HCC-2998 colon was over 100 µM in each case. Moreover, the TGI in the test on SNB-19 CNS, with CCRF-CEM leukemia, in the test on OVCAR-8 ovarian and in the test with HCT-116 colon was over 100 µM throughout.
As to `COC(=O)[C@H](Cc1ccccc1)NC(=O)c1csc([C@@H](C[C@H](C(C)C)N(C)C(=O)[C@@H](NC(=O)[C@H]2CCCN2C)C2CC2)OC(C)=O)n1`, the GI50 in the test with HOP-62 NSCLC is 0.831 µM; in the test on SNB-75 CNS, 0.131 µM; with NCI-H23 lung, 1.46 µM; in the test on RPMI-8226 leukemia, 0.224 µM; in the test with SK-MEL-2 melanoma it was 0.728 µM; in the test on HCC-2998 colon, 1.48 µM. The GI50 was 0.943 µM in the test with SNB-19 CNS, 0.166 µM in the test with CCRF-CEM leukemia, 0.602 µM in the test on OVCAR-8 ovarian and 0.138 µM in the test on HCT-116 colon. Besides, the TGI with HOP-62 NSCLC, in the test with SNB-75 CNS, with NCI-H23 lung, in the test with RPMI-8226 leukemia, in the test on SK-MEL-2 melanoma and in the test with HCC-2998 colon was over 33.3 µM each time. The TGI in the test on SNB-19 CNS is over 33.3 µM; with CCRF-CEM leukemia it was over 33.3 µM; in the test on OVCAR-8 ovarian, over 33.3 µM; with HCT-116 colon it was 21.4 µM.
